Laboratory results: ChEMBL document CHEMBL5154793, “Discovery of Thieno[2,3-d]pyrimidine-based KRAS G12D inhibitors as potential anticancer agents via combinatorial virtual screening” (Eur J Med Chem, 2022)

What was measured:
Format in all cases: functional, cell-based
CT26 = assay: Antiproliferative activity against mouse CT26 cells harboring KRAS G12D mutant assessed as inhibition of cell viability after 24 hrs by MTT assay; conditions: CT26, 24 h
PANC-1 = assay: Antiproliferative activity against human PANC1 cells harboring KRAS G12D mutant assessed as inhibition of cell viability after 24 hrs by MTT assay; conditions: PANC-1, 24 h
SW1990 = assay: Antiproliferative activity against human SW1990 cells harboring KRAS G12D mutant assessed as inhibition of cell viability after 24 hrs by MTT assay; conditions: SW1990, 24 h
HeLa = assay: Antiproliferative activity against human HeLa cells harboring wild type KRAS assessed as inhibition of cell viability after 24 hrs by MTT assay
NCI-H358 = assay: Antiproliferative activity against human NCI-H358 cells harboring KRAS G12C mutant assessed as inhibition of cell viability after 24 hrs by MTT assay; conditions: NCI-H358, 24 h
HCT-116 = assay: Antiproliferative activity against human HCT-116 cells harboring KRAS G13D mutant assessed as inhibition of cell viability after 24 hrs by MTT assay; conditions: HCT-116, 24 h

IC50 (CT26) [µM]	IC50 (PANC-1) [µM]	IC50 (SW1990) [µM]	IC50 (HeLa) [µM]	IC50 (NCI-H358) [µM]	IC50 (HCT-116) [µM]	SMILES
25	> 20	> 20	–	–	–	COc1cc(-c2cc3c(N4CC5CCC(C4)N5)ncnc3s2)cc(OC)c1OC
11.8	6.1	17.8	> 40	21.5	27.3	Fc1ccc(F)c(-c2cc3c(N4CC5CCC(C4)N5)ncnc3s2)c1
4.4	16.8	8.7	–	–	–	O=[N+]([O-])c1ccc(-c2cc3c(N4CC5CCC(C4)N5)ncnc3s2)cc1
14.1	10.2	13.3	–	–	–	COc1ccc(-c2cc3c(N4CC5CCC(C4)N5)ncnc3s2)cc1F
6.5	5.3	7.7	8.8	9.1	8.2	FC(F)(F)c1cc(Cl)cc(-c2cc3c(N4CC5CCC(C4)N5)ncnc3s2)c1
17	15.2	18.8	–	–	–	COc1cccc(F)c1-c1cc2c(N3CC4CCC(C3)N4)ncnc2s1
13.4	10.1	5.9	–	–	–	Cc1ccc(-c2cc3c(N4CC5CCC(C4)N5)ncnc3s2)c(C)c1
7.1	7.5	12.1	12.5	9.4	9.9	Clc1ccc(-c2cc3c(N4CC5CCC(C4)N5)ncnc3s2)cc1Cl
6.9	10.3	6.2	–	–	–	FC(F)(F)c1ccc(-c2cc3c(N4CC5CCC(C4)N5)ncnc3s2)cc1
22.6	> 20	16.8	–	–	–	COc1ccc(F)cc1-c1cc2c(N3CC4CCC(C3)N4)ncnc2s1
14.7	12.9	7.2	–	–	–	Fc1cc(-c2cc3c(N4CC5CCC(C4)N5)ncnc3s2)cc(C(F)(F)F)c1
9.7	9.4	4.2	–	–	–	FC(F)(F)c1ccc(Cl)c(-c2cc3c(N4CC5CCC(C4)N5)ncnc3s2)c1
15.6	13	13.4	–	–	–	Fc1ccc(-c2cc3c(N4CC5CCC(C4)N5)ncnc3s2)c(F)c1
8.4	6.7	8	–	–	–	COc1ccc(Cl)c(-c2cc3c(N4CC5CCC(C4)N5)ncnc3s2)c1
6.5	4.3	7.7	11.3	10.1	15.9	Clc1ccc(Cl)c(-c2cc3c(N4CC5CCC(C4)N5)ncnc3s2)c1
13	24.7	15.9	–	–	–	Fc1cc(-c2cc3c(N4CC5CCC(C4)N5)ncnc3s2)ccc1Cl
12.4	2.8	7.7	11.5	–	7.9	c1ccc(-c2cccc3ccccc23)c(-c2cc3c(N4CC5CCC(C4)N5)ncnc3s2)c1
5.7	4	4.9	8.5	9.4	9.7	COc1ccc(Cl)cc1-c1cc2c(N3CC4CCC(C3)N4)ncnc2s1
9.8	7.9	10.2	–	–	–	COc1ccc(F)c(-c2cc3c(N4CC5CCC(C4)N5)ncnc3s2)c1
7.2	7.7	5.8	10.5	4.5	8	COc1cc(-c2cc3c(N4CC5CCC(C4)N5)ncnc3s2)cc(C(F)(F)F)c1
7.2	6.8	9.2	7.7	9.4	4.9	COc1cc(Cl)ccc1-c1cc2c(N3CC4CCC(C3)N4)ncnc2s1
13.8	11.4	15.8	–	–	–	Cc1ccc(-c2cc3c(N4CC5CCC(C4)N5)ncnc3s2)c(Cl)c1
> 20	> 20	> 20	> 20	0.2	> 20	C=CC(=O)N1CCN(c2ncnc3c(F)c(-c4c(O)cccc4F)c(Cl)cc23)CC1

SMILES	IC50 (CT26) [µM]	IC50 (PANC-1) [µM]	IC50 (SW1990) [µM]	IC50 (HeLa) [µM]	IC50 (NCI-H358) [µM]	IC50 (HCT-116) [µM]
c1ccc(-c2cc3c(N4CC5CC(C4)N5)ncnc3s2)cc1	40.5	30.5	40.1	–	–	–
